Peptide text beside a SMILES is read from it. * marks the point of attachment. Tos = Cc1ccc(S(=O)(=O)*)cc1; CH2Cl = ClC*
Experiments:
[1] = tested on: EAN rats (experimental autoimmune neuritis); assay: Electrophysiological tests in EAN rats treated with thrombin inhibitors; assay type: in vivo, rat
Description: (§1) Electrophysiological tests of the sciatic nerves were performed on day 32 PI (post-immunization/induction) in EAN model (FIGS. 3A-C) and 8 weeks after STZ induction (FIG. 4A-C). Rats were anesthetized with Phenobarbital (IP, 24 mg/kg). Two pairs of monopolar needle electrodes were used to stimulate the tail nerves. Stimulating cathodes were inserted to a depth of 4-5 mm at the base of the tail and 4 cm distally. An anode at each location was inserted into the skin (4-5 mm depth) 1 cm proximal to the cathode. A ground electrode was placed between the distal stimulating electrode and the active recording electrode. Electromyography (EMG) recordings of responses of the tail muscles to proximal and distal stimuli, made by a pair of ring electrodes coated with electrode jelly and placed 1 cm distally to the distal stimulating electrode, were collected. The tail skin was wiped with alcohol prior to placing the electrodes. […] Both proximal and distal latencies were measured using time intervals from the stimulus artifact to the first deflection from baseline. To calculate the motor nerve conduction velocity (MNCV), the distance between stimulating cathodes was divided by the latency difference. Amplitudes of the compound muscle action potential (CMAP) from both proximal and distal stimulations were measured from the negative to the positive peaks. The reduction of the proximal CMAP compared with that of the distal CMAP was calculated by the equation: [(distal CMAP-proximal CMAP)/distalCMAP×100] and was defined as the R ratio. Temperature differences were minimized by conducting the study as soon as the anesthesia had taken effect and by warming the tail with a heating lamp.
(§2) FIGS. 3 and 4 each include 3 graphs summarizing the results from electrophysiological tests of treated rats, as follows: distal latency (3A, 4A) referring to the time, in milliseconds, between distal stimulation to recording; conduction velocity (3B, 4B) referring to the distance over time, in meters/seconds; and amplitude (3C, 4C) referring to the size of the response as measured in millivolts.

[2] = tested on: STZ-induced diabetic rats; assay: Electrophysiological tests in STZ-induced diabetic rats treated with thrombin inhibitors; assay type: in vivo, rat; settings: STZ rats
Description: as §1, §2

C6 glioma cells [3] = assay: Thrombin-like activity in C6 glioma cell line; assay type: cell-based; settings: four hours after treatment
CNS-1 glioma cells [4] = tested on: CNS-1 glioma cells
Description: The thrombin-like activity of CNS-1 cells was initially measured in control cells and in cells treated with (i) the short peptide conjugate (tosyl-DPR-CK, corresponding to a conjugate that includes the peptide termed 3AA) or (ii) the long conjugate (tosyl-NATLDPR-CK, corresponding to a conjugate that includes the peptide termed 7AA (SEQ ID No. 4)) at high ([…]) and low (100 nM) concentrations (FIG. 16).

CNS-1 glioma cells [5] = assay: Proliferation (XTT) of CNS-1 glioma cells; assay type: cell-based, rat; settings: CNS-1 cells; for inhibition of cell proliferation: XTT, 48 hours
Description: (§3) Several peptide moieties (Table 1) according to the present invention were synthesized. Proliferation was measured, by means of XTT, in C6 and CNS-1 glioma cell-lines (FIGS. 8A and 8B, respectively). In C6 cells, proliferation was measured before (black bar) and after cells were treated with the PAR-1 antagonist SCH79797 at various doses ranging from 10 nM to 10 μM (grey bars; FIG. 8A).
In another set of experiments, CNS-1 glioma cell-line was treated with increased doses of TLCK (125 nM to 14 mM), for 48 hours (FIG. 9; grey bars). Proliferation was measured by means of XTT in comparison to non-treated cells (control; black bar).
Initially, CNS-1 glioma cells were treated with increased concentrations of two peptide conjugates: a short conjugate of the formula tosyl-DPR-CK (comprising 3 amino acids, 3AA) or a long conjugate of the formula tosyl-NATLDPR-CK (comprising 7 amino acids, 7AA; SEQ ID NO: 4) in concentrations of 100 pM, 1 nM and 10 nM, for 48 hours (FIG. 10). FIG. 10 provides the results of an XTT assay used for assessing cell proliferation.
The effect of the peptide conjugate alone, or in combination with PAR-1 antagonist, SCH79797, on cell proliferation was determined in comparison to untreated cells or cells treated with PAR-1 antagonist (FIG. 13).

[6] = tested on: blood coagulation (prothrombin time); assay: Prothrombin time test; assay type: biochemical; settings: for PT: without conjugate 11.5; for Potency score in PT test: most potent (1) to least potent (5)
blood coagulation (aPTT) = assay: Activated partial thromboplastin time test; assay type: biochemical; settings: for aPTT: without conjugate 30.5; for Potency score in aPTT test: most potent (1) to least potent (5)
thrombin = assay: Thrombin time test; assay type: biochemical; settings: for TT: without conjugate 13.4; for Potency score in TT test: most potent (1) to least potent (5)
Factor Xa = Factor Xa activity test; assay type: biochemical; settings: for Fxa: without conjugate 0.11; for Potency score in Factor Xa activity test: most potent (1) to least potent (5)
Protein C = Protein C (Homo sapiens, UniProt P04070); assay: Protein C activity test; assay type: biochemical; settings: for aPC: without conjugate 109; for Potency score in Protein C activity test: most potent (1) to least potent (5)
Chain of Protein C (P04070 212-461 limits assumed): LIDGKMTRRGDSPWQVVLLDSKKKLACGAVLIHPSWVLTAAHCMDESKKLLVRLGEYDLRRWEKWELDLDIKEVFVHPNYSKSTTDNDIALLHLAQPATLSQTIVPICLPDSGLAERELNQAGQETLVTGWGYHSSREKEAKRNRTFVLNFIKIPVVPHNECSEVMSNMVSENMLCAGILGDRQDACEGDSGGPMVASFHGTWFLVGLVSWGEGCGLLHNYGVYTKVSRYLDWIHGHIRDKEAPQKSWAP
Chain of Protein C (P04070 43-197 partner limits assumed): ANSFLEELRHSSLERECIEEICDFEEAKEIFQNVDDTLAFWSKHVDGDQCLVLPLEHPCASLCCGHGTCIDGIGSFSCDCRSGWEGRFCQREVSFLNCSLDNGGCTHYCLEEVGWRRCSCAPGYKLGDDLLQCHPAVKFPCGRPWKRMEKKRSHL

in vivo = settings: ip, 2 micromolar, in 100 ul
Description: The concentrations of the peptide conjugates in the plasma of animals treated therewith was evaluated by a unique method that was based on the ability of the peptide conjugates to inhibit thrombin activity. […] The essay initiated by obtaining blood samples from animals which received the peptide conjugates (100 microliter containing 2 micromolar, i.p.). The blood samples, after being maintained in citrate buffered sample tubes, were subjected to centrifugation for plasma separation. Samples were then filtered through a membrane with a 10 kD molecular weight cutoff which excluded all blood coagulation factors (by addition of calcium to neutralize the anticoagulation effect of the citrate buffer). Coagulation factor-free plasma samples were then applied to the thrombin activity assay.
The resulting thrombin activities in each plasma sample either diluted (×10) or as is were given in arbitrary units (FIGS. 18-18D, diagonal shading and dotted bars, respectively). However, the actual concentration were deduced by comparing the activities to calibrated activities generated with known concentrations of the conjugate peptides. The calibration data included the following thrombin activities: activity in a sample of thrombin in the absence of plasma and conjugates (black bars, FIGS. 18A-18D); and activity in four samples of thrombin and known concentrations of the peptide conjugates (10 nM, 100 nM, 1 micromolar and 10 micromolar; bars 2nd to 5th from right in FIGS. 18A-18D).

[7] = tested on: STZ-induced diabetic BALB/c mice; assay: Sciatic nerve conduction velocity in STZ diabetic neuropathy mice; assay type: in vivo; settings: daily 100 microliter of 10 nM, p=0.016, listed as T5AACK
Description: The conduction velocity of sciatic nerves derived from an animal model of diabetes (streptozotocine (STZ)-induced diabetes; FIG. 20) was measured in mice treated daily with sham (STZ), or with the active drug TLDPR (peptide 5AA; SEQ ID NO: 2) nested between N alpha-tosyl and chloromethyl ketone, namely […] (termed hereinafter T5AACK) injected in 100 microliter of 10 nM, 100 nM and 1 micromolar.
Conduction velocities in the sciatic nerves of the mice were assessed by standard electrophysiology nerve conduction methods by a blind assessor. The nerve conduction studies were carried out one month after the induction of diabetes. A group of normal mice without diabetes served as controls. All STZ treated mice developed severe diabetes.
Streptozotocyn (STZ) was dissolved in citrate buffer pH 4.5 and a single dose of STZ was administered IP (140 mg/kg) to 12 weeks BALB/c mice. […] Mice developed diabetic neuropathy developed within 4 weeks after the induction of diabetes. […]
Conduction velocities in the sciatic nerves of the mice were assessed by standard electrophysiology nerve conduction methods by a blind assessor (FIG. 19).

C6 glioma cells [8] = assay: Proliferation (XTT) of C6 glioma cells; assay type: cell-based; settings: 10 nM to 10 μM
Description: as §3

| Structure (SMILES) | IC50 (CNS-1 glioma cells [4]) | PT ([6]; 10 nM) | PT ([6]; 1 μM) | Potency score in PT test ([6]; 100 μM) | PT ([6]; 100 μM) | aPTT (blood coagulation (aPTT); 10 nM) | aPTT (blood coagulation (aPTT); 1 μM) | Potency score in aPTT test (blood coagulation (aPTT); 100 μM) | aPTT (blood coagulation (aPTT); 100 μM) | TT (thrombin; 10 nM) | Potency score in TT test (thrombin; 1 μM) | TT (thrombin; 1 μM) | TT (thrombin; 100 μM) | Potency score in Factor Xa activity test (Factor Xa; 100 μM) | Fxa (Factor Xa; 100 μM) | aPC (Protein C; 1 μM) | Potency score in Protein C activity test (Protein C; 100 μM) | aPC (Protein C; 100 μM) | level at time molar (in vivo) | also measured |
| --- | --- | --- | --- | --- | --- | --- | --- | --- | --- | --- | --- | --- | --- | --- | --- | --- | --- | --- | --- | --- |
| N=C(N)c1ccc(CC(NC(=O)CNS(=O)(=O)c2ccc3ccccc3c2)C(=O)N2CCCCC2)cc1 (racemic) [NAPAP, Na-(2-naphthyl-sulphonyl-glycyl)-DL-p-amidinophenylalanyl-piperidine] |  |  |  |  |  |  |  |  |  |  |  |  |  |  |  |  |  |  |  | conduction velocity ([1]; daily treatment for 2 weeks, TLCK 4.4 mg/kg, NAPAP 120 μM/kg, untreated EAN 23.6±1.2): 36.05±3.57 m/sec; proximal amplitude ([1]; untreated EAN 0.76±0.33, non-significant): 0.83±0.4 millivolts; latency ([1]; untreated EAN 1.43±0.023, control 0.54±0.03): 1.32 ± 0.33 ms; conduction velocity ([2]; daily treatment for 2 weeks, TLCK 4.4 mg/kg, NAPAP 120 μM/kg, untreated STZ 28.5±2.8): 40.1±2.7 m/sec; proximal amplitude ([2]; untreated STZ 0.48±0.13, insignificant): 1.68±0.64 millivolts; latency ([2]; untreated STZ 1.93±0.139, control 1.29±0.057): 1.676 ± 0.132 ms; thrombin-like activity (C6 glioma cells [3]): inhibited |
| Cc1ccc(S(=O)(=O)N[C@@H](CC(=O)O)C(=O)N2CCC[C@H]2C(=O)N[C@@H](CCCNC(=N)N)C(=O)CCl)cc1 [3AA, tosyl-DPR-CK] (Tos-Asp-Pro-Arg-CH2Cl) | 0.007 nM | 11.5 s | 12.3 s | 1 | FAILED | 30 s | 38.1 s | 1 | 150 s | 14.1 s | 1 | > 80 s | > 80 s | 1 | FAILED | 107 | 1 | FAILED | ~1000 nM | inhibition of cell proliferation (CNS-1 glioma cells [5]; 1 nM): significant inhibition of cell proliferation; inhibition of cell proliferation (CNS-1 glioma cells [5]; 10 nM): higher inhibition; Fxa (Factor Xa; 1 μM): 0.21; effect on coagulation, overall (blood coagulation): significantly more deleterious effects on coagulation |
| Cc1ccc(S(=O)(=O)N[C@H](C(=O)N[C@@H](CC(C)C)C(=O)N[C@@H](CC(=O)O)C(=O)N2CCC[C@H]2C(=O)N[C@@H](CCCNC(=N)N)C(=O)CCl)[C@@H](C)O)cc1 [5AA, tosyl-TLDPR-CK] (Tos-TLDPR-CH2Cl) | 0.7 nM | 12.1 s | 11.5 s | 4 | 14.5 s | 30.1 s | 30.5 s | 4 | 63.9 s | 13.8 s | 4 | 17.8 s | > 80 s | 4 | 0.13 | 109 | 3 | 20 | < 10 nM | sciatic nerve conduction velocity relative to sham treated mice [7]: followed a similar trend |
| CC(C)c1ccc(Cn2ccc3c4c(N)nc(NC5CC5)nc4ccc32)cc1.Cl.Cl [SCH79797, N3-Cyclopropyl-7-[[4-(1-methylethyl)phenyl]methyl]-7H-pyrrolo[3,2-f]quinazoline-1,3-diamine dihydrochloride, reference compound] |  |  |  |  |  |  |  |  |  |  |  |  |  |  |  |  |  |  |  | proliferation (C6 glioma cells [8]): inhibited proliferation in a dose-dependent manner; inhibition at 1 µM (CNS-1 glioma cells [5]; Rattus norvegicus, Glioma cell, 1 μM, alone): 25% |

From US10028999B2, “PAR-1 based therapeutic conjugates and uses thereof” (TEL HASHOMER MEDICAL RESEARCH INFRASTRUCTURE AND SERVICES …, priority 2014, dated 2018)
